In patent US11851692B2, “Method for preparing an antimycin compound produced by Streptomyces sp.4-7” (priority 2022, dated 2023):
≈ marks a conversion by molar mass, not a printed value.

What was measured:
[1] = Oxford Cup method antifungal test, Botrytis cinerea; assay type: cell-based, Botrytis cinerea (CGMCC3.3789); conditions: Staphylococcus, CGMCC3, 120 h; Oxford Cup method, PDA plates, 28° C., 5 days; strain CGMCC 3.3789; read-out: minimum inhibitory concentration (MIC)
Protocol: (§1) Preparation of the test sample solution: The test sample was the pure compound I separated and purified in the above Example 1. An appropriate amount of sample was accurately weighed and mixed with DMSO to obtain a solution of the required concentration for testing the antifungal activity. The indicator bacteria used in this experiment were Botrytis cinerea (CGMCC3.3789) and Penicillium citrinum (ATCC1109).
(§2) Oxford Cup method for antifungal test: 100 μL of spore suspension was spread evenly on PDA plates, and Oxford cups were placed in the center of the plates. 100 μL of compound solutions of different concentrations were added into the Oxford cups separately, the concentrations of the compound solutions were 32 μg/mL, 16 μg/mL, 8 μg/mL, 4 μg/mL, 2 μg/mL, 1 μg/mL, and 0.5 μg/mL. DMSO was used as a negative control, and prochloraz of the same concentration was used as a positive control. After incubation at 28° C. for 5 days, the growth of fungi was observed. Four culture plates were set up for each treatment, and the whole experiment was repeated three times.

[2] = system: Staphylococcus griseus (CGMCC 3.3789); experiment: as above; assay type: cell-based, Botrytis cinerea (CGMCC3.3789); conditions: result in words
Protocol: as §1, §2

[3] = system: Penicillium oryzae (ATCC 1109); experiment: Oxford Cup method antifungal test, Penicillium citrinum; assay type: cell-based, Penicillium citrinum (ATCC1109)
Protocol: as §1, §2

CC[C@@H](C)C[C@H]1C(=O)O[C@H](C)[C@H](NC(=O)c2cccc(NC=O)c2O)C(=O)O[C@@H](C)[C@@H]1CC(=O)C(C)C [Compound I, Antimycin I]
MIC [1]: 2 µg/mL (≈ 3.86 µM) | resistance activity against Botrytis cinerea (antifungal activity screening) [2]: significant resistance activity | MIC ([3]; Penicillium, ATCC1109, 120 h, Oxford Cup method, PDA plates, 28° C., 5 days, strain ATCC 1109, read-out: minimum inhibitory concentration (MIC)): 4 µg/mL (≈ 7.71 µM) | resistance activity against Penicillium citrinum (antifungal activity screening) ([3]; result in words): significant resistance activity
